The source of these data is US20160015743A1, “METHODS FOR TREATING CANCER” (priority 2013, published 2016).

In assay [1] the target is T1, cyclin D1 (Homo sapiens, UniProt P24385).
T1 construct: endogenous in cells; host or cells: HCT-116
Briefly: In vivo SUMOylation and ubiquitylation assay (co-immunoprecipitation, western blotting). Format: cell-based. How it is done: (§1) (a, b&d) In vivo SUMOylation and ubiquitination assay. As for (a), HCT-116 cells were treated with As2O3 for 16 h (2.5 μM). Cell lysates were harvested at different time points (0, 1, 4 and 16 h). As for (b), WT or mutant cyclin D1 (K149R, T286A, DM) construct was stably transfected into HCT-116 cells. Then the cells were treated with As2O3 for 1 h. As for (d), HCT-116 cells were treated with As2O3 for 16 h (2.5 μM) in the absence or presence of MG132 (10 μM, 6 h of incubation). The SUMOylated and ubiquitylated cyclin D1 was detected as described in FIG. 1f. Cyclin D1 protein levels were detected using anti-cyclin D1 antibody (a&d) or anti-HA-antibody (b) by western blotting. (c) WT or mutant cyclin D1 (K149R, T286A, DM) construct was stably transfected into HCT-116 cells. Then the cells were treated with As2O3 for 16 h. Cyclin D1 protein levels were detected using anti-HA-antibody by western blotting. (e) TUNEL staining. WT or mutant cyclin D1 (K149R, T286A) construct was stably transfected into HCT-116 cells. Then the cells were treated with As2O3 (2.5 μM) for 16 h. The apoptotic cells were detected using Promega's DEADEND Colorimetric TUNEL System. Yellow arrows are pointing at apoptotic cells. (f) Flow cytometry. WT or mutant cyclin D1 (K149R) construct was stably transfected into HCT-116 cells. Then the cells were treated with As2O3 for 16 h (2.5 μM). Cell cycle progression was detected by flow cytometry. (As, arsenic trioxide)
(§2) SUMOylated cyclin D1 or ubiquitylated cyclin D1 was detected by co-immunoprecipitation using anti-SUMO-2/3 antibody or anti-ubiquitin antibody conjugated beads (Enzo Life Science), followed by immunoblotting with anti-cyclin D1 antibody or anti-HA antibody for cyclin D1 detection.
Background: A western blot detects proteins with antibodies after separation by electrophoresis.

Assay [2] concerns cyclin D1. Briefly: Cyclin D1 protein levels by western blotting in transfected HEK293 cells with or without MG132. Format: cell-based, human. How it is done: Ubc9 (a), SUMO1 (b), SUMO2 (c), SUMO3 (d) together with SENP1 constructs was co-transfected with cyclin D1 into HEK293 cells in the absence or presence of proteasome inhibitor MG132 (10 μM, 6 h of incubation). Cyclin D1 protein levels were detected through western blotting. (e) siRNA specific for Ubc9 was transiently transfected in human colon cancer cell HCT116 cells. Endogenous cyclin D1 protein levels were detected through western blotting. (f) In vivo SUMOylation and ubiquitination assay. HA-cyclin D1 was co-transfected with Ubc9 and SENP1 expression plasmids into HEK293 cells in the presence of MG132 (10 μM, 6 h of incubation). […]
(a) Cell lysates were extracted from different tissues of wt or Itch-KO mice. Endogenous cyclin D1 protein levels were detected using anti-cyclin D1 antibody by western blotting. […] Endogenous cyclin D1 protein levels were detected using anti-cyclin D1 antibody by western blotting. […] Cyclin D1 protein levels were detected using anti-HA antibody by western blotting. […] 24 h after transfection, the cell lysates were collected, the ubiquitylated cyclin D1 was detected as described in FIG. 1f. […] Cyclin D1 protein levels were detected using anti-HA antibody by western blotting. […]
Western blotting and immunoprecipitation (IP) were performed as previously described (54). The interaction between endogenous Cyclin D1 and Itch was determined in HEK293 cells. […]

The target of assay [3] is T2, cyclin D1 (Homo sapiens, UniProt P24385, T286A).
T2 construct: endogenous in cells; host or cells: HCT-116
Description: In vivo SUMOylation and ubiquitylation assay (co-immunoprecipitation, western blotting). Format: cell-based. The settings on record: HCT-116 cells stably expressing T286A mutant cyclin D1, treated 1 and 16 hours. The protocol:
as §1, §2

Assay [4] has as its target T3, cyclin D1 (Homo sapiens, UniProt P24385, K149R).
T3 construct: endogenous in cells; host or cells: HCT-116
Briefly: Cyclin D1 protein levels by western blotting in HCT-116 cells. In kind it is cell-based. The settings on record: HCT-116 cells stably expressing K149R mutant cyclin D1, treated 16 h. The protocol: as §1
(§3) 48 h later, the cyclin D1 protein levels were detected through western blotting.
(§4) Western blotting and immunoprecipitation (IP) were performed as previously described (54). The interaction between endogenous Cyclin D1 and Itch was determined in HEK293 cells. Proteasome inhibitor MG132 (10 μM) (Sigma, St. Louis, Mo.) was added to the cell culture 6 hours before cells were harvested for immunoprecipitation assay. […]

In assay [5] the target is T4, cyclin D1 (Homo sapiens, UniProt P24385, K149R/T286A).
T4 construct: endogenous in cells; host or cells: HCT-116
The description is as above. Format: cell-based. As to conditions: HCT-116 cells stably expressing K149R/T286A mutant cyclin D1, treated 16 h. The protocol: as §1, §3, §4

The subject of assay [6] is cyclin D1. The description is as above. Format: cell-based, human. As to conditions: HCT-116 cells, Itch siRNA, As2O3 2.5 μM, 48 h. The protocol: as §1, §3, §4
Assay [7] has as its system HCT-116 cells. Description: TUNEL staining of apoptotic cells. Format: cell-based, human. As to conditions: 16 h. The protocol:
as §1
Cell apoptosis was detected using fluorescent in situ terminal deoxynucleotidyl transferase-mediated uridine 5′-triphosphate-biotin nick end labeling (TUNEL staining). Sections were first permeabilized in 0.1% Triton X-100 in phosphate-buffered saline (PBS) for 8 mins. TUNEL reaction mixture was obtained by adding terminal deoxynucleotidyl transferase to nucleotide mixture, as instructed by the manufacturer's manual (DEADEND Fluorometric TUNEL System, Promega). Sections were counterstained nuclei with 4′-6-Diamidino-2-phenylindole (DAPI).

The subject of assay [8] is HCT-116 cells. Description: Cell cycle analysis by flow cytometry. Format: cell-based, human. The settings on record: HCT-116 cells transfected with K149R mutant cyclin D1 compared with WT, As2O3 2.5 μM, 16 h. How it is done: as §1, with “WT or mutant cyclin D1 (K149R, T286A) construct was stably transfected into HCT-116 cells. Then the cells were treated with As2O3 (2.5 μM) for 16 h.” left out, “Yellow arrows are pointing at apoptotic cells. (f) Flow cytometry. WT or mutant cyclin D1 (K149R) construct was stably transfected into HCT-116 cells. Then the cells were treated with As2O3 for 16 h (2.5 μM).” left out, “(As, arsenic trioxide)” left out
FACS analysis was performed as described in the research by Santra et al (55). […] FACS samples were analyzed with a FACSCANTO Flow Cytometry System (BD Biosciences). And the data were analyzed using FlowJo 7.6 software according to the manufacturer's instruction.
(In flow cytometry, cells or beads pass a laser one at a time.)

Another assay has as its system solid and liquid tumors. The settings on record: references 48-51; cited from earlier work.
Another assay deals with tumor. As to conditions: reference 52; cited from earlier work.

Where a SMILES comes first, the peptide text is derived from it. The star is where a group is joined. Cbz = O=C(OCc1ccccc1)*

T1 sequence (P24385 whole entry): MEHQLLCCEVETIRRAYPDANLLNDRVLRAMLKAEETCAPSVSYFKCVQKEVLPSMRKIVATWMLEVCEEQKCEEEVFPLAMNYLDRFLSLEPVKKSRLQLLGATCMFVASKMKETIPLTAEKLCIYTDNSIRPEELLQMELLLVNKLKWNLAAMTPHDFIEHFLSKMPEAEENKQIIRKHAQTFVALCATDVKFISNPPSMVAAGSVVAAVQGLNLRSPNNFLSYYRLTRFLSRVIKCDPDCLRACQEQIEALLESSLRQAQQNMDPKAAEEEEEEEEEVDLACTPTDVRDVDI
T3 sequence (P24385 whole entry K149R): as the sequence (P24385 whole entry) above, with K149R counted along it
T2 sequence (P24385 whole entry T286A): as the sequence (P24385 whole entry) above, with T286A counted along it
T4 sequence (P24385 whole entry K149R/T286A): as the sequence (P24385 whole entry) above, with K149R, T286A counted along it

As to `CC(C)C[C@@H](C=O)NC(=O)[C@H](CC(C)C)NC(=O)[C@H](CC(C)C)NC(=O)OCc1ccccc1` [MG132] (Cbz-Leu-Leu-Leu-aldehyde), the “effect on As2O3-mediated cyclin D1 SUMOylation and polyubiquitination” value at cyclin D1 [1] (HCT-116 cells, As2O3 2.5 μM 16 h, MG132 10 μM 6 h) is “reversed”. For the same compound, the “effect on Itch-induced cyclin D1 degradation” value with cyclin D1 [2] (HEK293 cells co-transfected with Itch and cyclin D1, MG132 10 μM 6 h) is recorded as “reversed the effect of Itch on cyclin D1 degradation”. In addition, the “effect on degradation of cyclin D1 caused by Ubc9” value in the assay with cyclin D1 [2] (HEK293 cells co-transfected with Ubc9 and cyclin D1, MG132 10 μM 6 h) is “reversed the degradation of cyclin D1”.

In the case of arsenic trioxide [As2O3], the “SUMOylation, polyubiquitination and degradation of cyclin D1” value on cyclin D1 [1] (HCT-116 cells stably expressing WT cyclin D1, treated 1 and 16 hours) was “induced SUMOylation, polyubiquitination and degradation of cyclin D1”; at cyclin D1 [3], “induced SUMOylation, polyubiquitination and degradation of cyclin D1”. In addition, the “SUMOylated- and polyubiquitinated-cyclin D1” value at cyclin D1 [1] (HCT-116 cells, As2O3 2.5 μM, 1 h after treatment) is reported as “accumulated”. On cyclin D1 [1] (HCT-116 cells, As2O3 2.5 μM, after 16 h treatment), the “modified (SUMOylated/polyubiquitinated) cyclin D1” value is “disappeared”. In addition, the “degradation of cyclin D1” value on cyclin D1 [4] and on cyclin D1 [5] was “no effect” throughout. In the assay with cyclin D1 [6], the “degradation of cyclin D1 under silencing of Itch expression” value is “did not abrogated degradation of cyclin D1”. The “cell apoptosis (TUNEL)” value in the assay with HCT-116 cells [7] (HCT-116 cells stably transfected with K149R mutant cyclin D1, As2O3 2.5 μM) was “much lower”; in the assay with HCT-116 cells [7] (HCT-116 cells stably transfected with K149R mutant cyclin D1, As2O3 2.5 μM, listed as arsenic trioxide), “significantly decreased”; in the assay on HCT-116 cells [7] (HCT-116 cells stably transfected with T286A cyclin D1, As2O3 2.5 μM), “induced accelerated cell apoptosis”; in the assay on HCT-116 cells [7] (HCT-116 cells stably transfected with WT cyclin D1, As2O3 2.5 μM), “induced accelerated cell apoptosis”. Moreover, in the assay on HCT-116 cells [8], the G1 arrest entry was “failed to induce efficient G1 arrest”. Also, the “cell apoptosis in solid and liquid tumors” value with solid and liquid tumors is given as “induces cell apoptosis”. Further, the “tumor size in nude mice” value with tumor was “tumor shrink”.
